Key:
Type in all cases: in vivo
Tygress tomato plants = assay: Yields of tomato fruits, greenhouse spring 2009 (Examples 13-15)
Method in brief: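 Greenhouse 'Tygress' tomatoes in micronutrient-deficient medium received foliar Cu/Fe source treatments at 6 WAT (200 mL/plant, deionized water plus non-ionic surfactant). Marketable fruit was harvested three times from 10 WAT and graded by size. RCBD, 6 replications, GLM with LSD at 5%.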

[1] = tested on: soybean plants (Asgrow 1102); assay: Visual greenness ratings (1-5 scale) of soybean plants, open-field (Examples 11-12); conditions: for Greenness of soybean plants compared to control, statement: Foxhome site, 29 July rating
Experimental: The following experiments were performed on soybean plants growing in open-field plots during the summer and fall of 2008 at two production fields in West Central Minnesota. […] Trial design was a randomized complete block with 4 replications. Each plot measured 10' by 30' and consisted of five 22'' rows. Although all five rows of each plot were treated, only the center three rows (25' in length) of each plot were machine harvested. The two fields selected for these studies had historical Iron Deficiency Chlorosis (IDC) issues. The two field sites were planted by farmers with elite Roundup Ready commodity type soybean varieties with IDC tolerance (Asgrow 1102, Monsanto Corp.). […] BIOX-M was applied at a rate of 1.12 kg Mn/ha. […] All V4 treatments were applied in 10 gallons per acre of water with a backpack sprayer with a hand boom designed to “band” apply product directly to the plant row. Three nozzles with ConeJet TXVS-2 tips were oriented on either side and over the top of each row. This maximized the applied product to the plant tissue itself and minimized application of product to the soil surface. […] The V6 treatments (where applicable) were applied in 20 gallons per acre of water to increase the suspension of the BIOX products.

[2] = tested on: soybean plants (Asgrow 1102); assay: Soybean seed yield (Examples 11-12)
Experimental: The following experiments were performed on soybean plants growing in open-field plots during the summer and fall of 2008 at two production fields in West Central Minnesota. […] Trial design was a randomized complete block with 4 replications. Each plot measured 10' by 30' and consisted of five 22'' rows. Although all five rows of each plot were treated, only the center three rows (25' in length) of each plot were machine harvested. The two fields selected for these studies had historical Iron Deficiency Chlorosis (IDC) issues. The two field sites were planted by farmers with elite Roundup Ready commodity type soybean varieties with IDC tolerance (Asgrow 1102, Monsanto Corp.). […] BIOX-M was applied at a rate of 1.12 kg Mn/ha. […] All V4 treatments were applied in 10 gallons per acre of water with a backpack sprayer with a hand boom designed to “band” apply product directly to the plant row. Three nozzles with ConeJet TXVS-2 tips were oriented on either side and over the top of each row. This maximized the applied product to the plant tissue itself and minimized application of product to the soil surface. […] The V6 treatments (where applicable) were applied in 20 gallons per acre of water to increase the suspension of the BIOX products. Soybean seed was harvested after soybean maturity was reached (3 October at […], and 17 Oct. 2008 at Foxhome) and seed yields for each experimental treatment group were determined. In addition, seed samples from each treatment were dried to 13% moisture content, then analyzed for protein and oil content.

Question: What does the source list for CSCCC(O)C(=O)[O-].CSCCC(O)C(=O)[O-].[Cu+2] (stereo not drawn) [BIOX-Cu, Cu-HMTBA]?
Answer: Marketable tomato yields compared to non-treated control, statement (Tygress tomato plants; BIOX-Cu at 0.46 and 0.55 lb/acre, Cu-sulfate at 0.8 lb/acre, BIOX-EDC at 0.4 lb/acre): did not alter marketable yields relative to the non-treated control; Marketable tomato yields compared to non-treated control, statement (Tygress tomato plants; BIOX-Cu at the 0.14 and 0.28 lb/acre levels): significantly increased marketable tomato yields; Marketable yield (Tygress tomato plants; Cu 0.14 lb/acre): 2350 a g/plant; Marketable yield (Tygress tomato plants; Cu 0.28 lb/acre): 2500 a g/plant; Marketable yield (Tygress tomato plants; Cu 0.46 lb/acre): 1250 b g/plant; Marketable yield (Tygress tomato plants; Cu 0.55 lb/acre): 1700 b g/plant

Question: For CSCCC(O)C(=O)[O-].CSCCC(O)C(=O)[O-].[Mn+2] (stereo not drawn) [BIOX-M, Mn-HMTBA], which “Mean visual greenness scores (1-5)” value ([1]; 7.0 kg/ha, V4, Jul. 15, 2008 Rating, Foxhome) is on record?
Answer: The value was 2.5.

Question: What about the “Mean visual greenness scores (1-5)” value ([1]; 7.0 kg/ha, V4, Jul. 15, 2008 Rating, Renville) of the same compound?
Answer: The value was 2.9.

Question: What about the “Mean visual greenness scores (1-5)” value ([1]; 7.0 kg/ha, V4, Jul. 29, 2008 Rating, Foxhome) of the same compound?
Answer: The value was 1.0 C.

Question: And the “Mean visual greenness scores (1-5)” value ([1]; 7.0 kg/ha, V4, Jul. 29, 2008 Rating, Renville)?
Answer: The value was 1.3.

Question: And the “Greenness of soybean plants compared to control, statement” value ([1]; BIOX-M 1.12 kg Mn/ha)?
Answer: Its value is “small but significant increase in greenness”.

Question: And the Yield ([2]; 7.0 kg/ha, V4, Foxhome)?
Answer: Its Yield is 43.63 Bu/A.

Question: What about the Yield ([2]; 7.0 kg/ha, V4, Renville) of the same compound?
Answer: The Yield was 24.15 Bu/A.

Question: For Fe-HMTBA [BIOX-Fe], which “Mean visual greenness scores (1-5)” value ([1]; 0.558 kg/ha, V4, V6, Jul. 15, 2008 Rating, Foxhome) is on record?
Answer: The value was 2.4.

Question: And the “Mean visual greenness scores (1-5)” value ([1]; 0.558 kg/ha, V4, V6, Jul. 15, 2008 Rating, Renville)?
Answer: Its value is 2.4.

Question: What about the “Mean visual greenness scores (1-5)” value ([1]; 0.558 kg/ha, V4, V6, Jul. 29, 2008 Rating, Foxhome) of the same compound?
Answer: The value was 1.0 C.

Question: What about the “Mean visual greenness scores (1-5)” value ([1]; 0.558 kg/ha, V4, V6, Jul. 29, 2008 Rating, Renville) of the same compound?
Answer: Its value is 1.1.

Question: What about the “Mean visual greenness scores (1-5)” value ([1]; 0.558 kg/ha, V4, Jul. 15, 2008 Rating, Foxhome) of the same compound?
Answer: Its value is 2.8.

Question: And the “Mean visual greenness scores (1-5)” value ([1]; 0.558 kg/ha, V4, Jul. 15, 2008 Rating, Renville)?
Answer: The value was 2.6.

Question: What about the “Mean visual greenness scores (1-5)” value ([1]; 0.558 kg/ha, V4, Jul. 29, 2008 Rating, Foxhome) of the same compound?
Answer: The value was 1.4 B, C.

Question: And the “Mean visual greenness scores (1-5)” value ([1]; 0.558 kg/ha, V4, Jul. 29, 2008 Rating, Renville)?
Answer: The value was 1.1.

Question: What about the “Mean visual greenness scores (1-5)” value ([1]; 1.12 kg/ha, V4, V6, Jul. 15, 2008 Rating, Foxhome) of the same compound?
Answer: Its value is 2.6.

Question: And the “Mean visual greenness scores (1-5)” value ([1]; 1.12 kg/ha, V4, V6, Jul. 15, 2008 Rating, Renville)?
Answer: The value was 2.6.

Question: What about the “Mean visual greenness scores (1-5)” value ([1]; 1.12 kg/ha, V4, V6, Jul. 29, 2008 Rating, Foxhome) of the same compound?
Answer: Its value is 1.5 A, B, C.

Question: And the “Mean visual greenness scores (1-5)” value ([1]; 1.12 kg/ha, V4, V6, Jul. 29, 2008 Rating, Renville)?
Answer: The value was 1.4.

Question: And the “Mean visual greenness scores (1-5)” value ([1]; 1.12 kg/ha, V4, Jul. 15, 2008 Rating, Foxhome)?
Answer: The value was 2.5.

Question: And the “Mean visual greenness scores (1-5)” value ([1]; 1.12 kg/ha, V4, Jul. 15, 2008 Rating, Renville)?
Answer: The value was 2.1.

Question: And the “Mean visual greenness scores (1-5)” value ([1]; 1.12 kg/ha, V4, Jul. 29, 2008 Rating, Foxhome)?
Answer: Its value is 1.0 C.

Question: And the “Mean visual greenness scores (1-5)” value ([1]; 1.12 kg/ha, V4, Jul. 29, 2008 Rating, Renville)?
Answer: Its value is 1.0.

Question: What about the “Greenness of soybean plants compared to control, statement” value ([1]; higher rate (269 g Fe/ha) at V4 only) of the same compound?
Answer: The value was “significantly increased the greenness in treated plants”.

Question: What about the “Greenness of soybean plants compared to control, statement” value ([1]; higher rate (269 g Fe/ha) at both V4 and V6) of the same compound?
Answer: The value was “no change in greenness compared to control”.

Question: And the “Toxic effects on soybean plants (in words)” value ([1]; iron concentrations 0.094% - 0.376% by weight)?
Answer: Its value is “without toxic effects”.

Question: What about the “Greenness of soybean plants compared to control, statement” value ([1]; lower rate (134 g Fe/ha) at V4) of the same compound?
Answer: Its value is “had no effect on greenness”.

Question: And the “Greenness of soybean plants compared to control, statement” value ([1]; lower rate (134 g Fe/ha) at both V4 and V6)?
Answer: The value was “significantly increased the greenness of the soybean plants”.

Question: What about the Yield ([2]; 0.558 kg/ha, V4, V6, Foxhome) of the same compound?
Answer: Its Yield is 46.01 Bu/A.

Question: What about the Yield ([2]; 0.558 kg/ha, V4, V6, Renville) of the same compound?
Answer: The Yield was 27.65 Bu/A.

Question: And the Yield ([2]; 0.558 kg/ha, V4, Foxhome)?
Answer: Its Yield is 43.17 Bu/A.

Question: And the Yield ([2]; 0.558 kg/ha, V4, Renville)?
Answer: Its Yield is 27.92 Bu/A.

Question: And the Yield ([2]; 1.12 kg/ha, V4, V6, Foxhome)?
Answer: Its Yield is 43.43 Bu/A.

Question: And the Yield ([2]; 1.12 kg/ha, V4, V6, Renville)?
Answer: Its Yield is 26.62 Bu/A.

Question: And the Yield ([2]; 1.12 kg/ha, V4, Foxhome)?
Answer: Its Yield is 44.23 Bu/A.

Question: What about the Yield ([2]; 1.12 kg/ha, V4, Renville) of the same compound?
Answer: The Yield was 27.43 Bu/A.

Question: And the “Marketable tomato yields compared to non-treated control, statement” value (Tygress tomato plants; BIOX-Fe at all levels, Fe-sulfate at 2.0 lb/acre, BIOX-EDF at 0.3 lb/acre)?
Answer: Its value is “significantly higher marketable tomato yields than the non-treated control”.

Question: What about the Marketable yield (Tygress tomato plants; Fe 0.28 lb/acre) of the same compound?
Answer: Its Marketable yield is 1750 g/plant.

Question: And the Marketable yield (Tygress tomato plants; Fe 0.57 lb/acre)?
Answer: Its Marketable yield is 1900 g/plant.

Question: And the Marketable yield (Tygress tomato plants; Fe 1.12 lb/acre)?
Answer: The Marketable yield was 2100 g/plant.

Question: What about the Marketable yield (Tygress tomato plants; Fe 1.74 lb/acre) of the same compound?
Answer: The Marketable yield was 1900 g/plant.

Question: And the Marketable yield (Tygress tomato plants; Fe 2.3 lb/acre)?
Answer: Its Marketable yield is 2400 g/plant.

Reference: patent publication US20110098177A1, “METHODS AND COMPOSITIONS OF PLANT MICRONUTRIENTS” (NOVUS INTERNATIONAL INC., priority 2006, published 2011)
